{"source": "paper PMC6492180", "about": "“Cytome micronucleus assays with a metabolically competent human derived liver cell line (Huh6): A promising approach for routine testing of chemicals?” (Environmental and Molecular Mutagenesis, 2018)", "key": {"[1]": {"tested_on": "Human lymphocytes", "conditions": "cited from earlier work"}, "[2]": {"tested_on": "Hep3B", "conditions": "cited from earlier work"}, "[3]": {"tested_on": "HepaRG", "conditions": "cited from earlier work"}, "[4]": {"tested_on": "HepG2", "conditions": "cited from earlier work"}, "[5]": {"tested_on": "Huh6 cells", "description": "All experiments were performed in duplicate.\n3.8–4.0 × 10^5 cells per well were seeded into 6‐well plates with 3 mL of RPMI (4% FBS) for 12 hr, then dilutions of stock solutions of the diagnostic mutagens were added for different time periods (4, 24, and 48 hr). In each experimental series solvent controls were included. Subsequently, the cells were washed twice with 3.0 mL medium. […] Finally, the cells were washed and trypsinised. Afterwards the cells were washed twice with 8.0 mL RPMI and collected on slides by cytocentrifugation (600 rpm, 5 min). The slides were air dried, fixed, and stained with DiffQuick according to the instructions of the manufacturer. For each experimental point, two cultures were tested per dose. From each culture ≥1,000 BN cells were evaluated under 400‐fold magnification (Nikon Photophot‐FXA, Tokyo, Japan). At least 2,000 binucleated cells were analyzed per dose for the determination of the different nuclear anomalies (MN, NBuds, and NBs).\nThe experiments were performed as described in the previous chapter. The cells were exposed only to one dose of the different mutagens and were cultivated after the seeding in 6‐well plates which contained 4% or 10% FBS in RPMI, respectively.\nData were evaluated by generalized linear model with Poisson counts. Chi‐square tests for overdispersion were applied. […] P values ≤0.05 were considered statistically significant.\n^150-60 000 cells were seeded in 6 well plates with 3 ml RPMI (4% FBS), subsequently different solutions of the test compound (dissolved in medium) were added. After treatment for different time periods, the cells was washed and processed as described in the Material and Method section. […] From each culture 1000 binoculated cells were evaluated. BN-MN – number of micronucleated cells; MN - total number of micronuclei; CBPI – cytokinesis-block proliferation index\n^1The experiments were conducted essentially as described in the footnote of Table S1A-I. *p≤0.05"}, "[6]": {"conditions": "ref IARC (2018); cited from earlier work"}, "[7]": {"conditions": "Human lymphocytes, + S9, ref Katic et al., 2010"}, "[8]": {"conditions": "10% FBS, 24 hr treatment, 100 µM"}}, "note": "Where two headings read alike, the source gives them in different places. Marks after values point to notes of the source that are not given here."}
{"compound": "Aflatoxin B1 [AFB1]", "values": [{"measurement": "Lowest effective concentration (LOEC) in micronucleus experiments", "setting": "[1]", "value": "0.1 + S9 (Miller et al., 1998) μM"}, {"measurement": "Lowest effective concentration (LOEC) in micronucleus experiments", "setting": "[2]", "value": "0.5 (Majer et al., 2004) μM"}, {"measurement": "Lowest effective concentration (LOEC) in micronucleus experiments", "setting": "[3]", "value": "0.25 (Le Hegarat et al., 2010) μM"}, {"measurement": "MN formation with the longer exposure time, treatment for 1 or 7 days (in words)", "setting": "[3]", "value": "stronger effects"}, {"measurement": "Lowest effective concentration (LOEC) in micronucleus experiments", "setting": "[4]", "value": "0.5 (Josse et al., 2012) μM"}, {"measurement": "Lowest effective concentration (LOEC) in micronucleus experiments", "setting": "[5]", "value": 10.0, "unit": "µM"}, {"measurement": "MN effects after 24 hr (or longer) compared with 4 hr treatment (in words)", "setting": "[5]", "value": "similar"}, {"measurement": "MN frequencies with 10% serum compared with 4% serum (in words)", "setting": "[5]", "value": "stronger effects"}]}
{"compound": "CN(C)N=O", "note": "[NDMA, N‐nitrosodimethylamine]", "values": [{"measurement": "Lowest effective concentration (LOEC) in micronucleus experiments", "setting": "[1]; [7]", "value": "Negative"}, {"measurement": "NOEC (highest no observable effect concentration tested)", "setting": "[1]; [7]", "value": 67500, "unit": "µM"}, {"measurement": "Lowest effective concentration (LOEC) in micronucleus experiments", "setting": "[2]; Hep3B, ref Majer et al., 2004", "value": "Negative"}, {"measurement": "NOEC (highest no observable effect concentration tested)", "setting": "[2]; Hep3B, ref Majer et al., 2004", "value": 180000, "unit": "µM"}, {"measurement": "Lowest effective concentration (LOEC) in micronucleus experiments", "setting": "[4]; HepG2, ref Majer et al., 2004", "value": 30000, "unit": "µM"}, {"measurement": "MN induction after 28 hr compared with 1 hr exposure (in words)", "setting": "[4]; HepG2, ref Natarajan and Darroudi (1991)", "value": "stronger effects"}, {"measurement": "Lowest effective concentration (LOEC) in micronucleus experiments", "setting": "[4]; HepG2, ref Valentin‐Severin et al., 2003", "value": 10000, "unit": "µM"}, {"measurement": "MN effects after 24 hr (or longer) compared with 4 hr treatment (in words)", "setting": "[5]; 4% FBS", "value": "more pronounced effects"}, {"measurement": "BN-MN (number of micronucleated cells)", "setting": "[5]; 4% FBS, 4hrs, 50 mM", "value": "21.0 ± 1.4 ‰"}, {"measurement": "Bridges", "setting": "[5]; 4% FBS, 4hrs, 50 mM", "value": "0.5 ± 0.7 ‰"}, {"measurement": "Buds", "setting": "[5]; 4% FBS, 4hrs, 50 mM", "value": "16.5 ± 2.1 ‰"}, {"measurement": "CBPI", "setting": "[5]; 4% FBS, 4hrs, 50 mM", "value": "1.7 ± 0.1"}, {"measurement": "MN (total number of micronuclei)", "setting": "[5]; 4% FBS, 4hrs, 50 mM", "value": "21.5 ± 0.7 ‰"}, {"measurement": "BN-MN (number of micronucleated cells)", "setting": "[5]; 4% FBS, 4hrs, 100 mM", "value": "24.0 ± 2.8 ‰"}, {"measurement": "Bridges", "setting": "[5]; 4% FBS, 4hrs, 100 mM", "value": "0.5 ± 0.7 ‰"}, {"measurement": "Buds", "setting": "[5]; 4% FBS, 4hrs, 100 mM", "value": "20.0 ± 1.4 ‰"}, {"measurement": "CBPI", "setting": "[5]; 4% FBS, 4hrs, 100 mM", "value": "1.7 ± 0.0"}, {"measurement": "MN (total number of micronuclei)", "setting": "[5]; 4% FBS, 4hrs, 100 mM", "value": "26.5 ± 0.7 ‰"}, {"measurement": "BN-MN (number of micronucleated cells)", "setting": "[5]; 4% FBS, 4hrs, 200 mM", "value": "26.5 ± 2.1* ‰"}, {"measurement": "Bridges", "setting": "[5]; 4% FBS, 4hrs, 200 mM", "value": "0.5 ± 0.7 ‰"}, {"measurement": "Buds", "setting": "[5]; 4% FBS, 4hrs, 200 mM", "value": "25.5 ± 5.0* ‰"}, {"measurement": "CBPI", "setting": "[5]; 4% FBS, 4hrs, 200 mM", "value": "1.5 ± 0.0"}, {"measurement": "MN (total number of micronuclei)", "setting": "[5]; 4% FBS, 4hrs, 200 mM", "value": "27.5 ± 0.7* ‰"}, {"measurement": "BN-MN (number of micronucleated cells)", "setting": "[5]; 4% FBS, 24hrs, 25 mM", "value": "20.5 ± 0.7 ‰"}, {"measurement": "Bridges", "setting": "[5]; 4% FBS, 24hrs, 25 mM", "value": "0.0 ± 0.0 ‰"}, {"measurement": "Buds", "setting": "[5]; 4% FBS, 24hrs, 25 mM", "value": "7.0 ± 1.4 ‰"}, {"measurement": "CBPI", "setting": "[5]; 4% FBS, 24hrs, 25 mM", "value": "1.8 ± 0.1"}, {"measurement": "MN (total number of micronuclei)", "setting": "[5]; 4% FBS, 24hrs, 25 mM", "value": "20.5 ± 0.7 ‰"}, {"measurement": "BN-MN (number of micronucleated cells)", "setting": "[5]; 4% FBS, 24hrs, 50 mM", "value": "21.5 ± 5.0 ‰"}, {"measurement": "Bridges", "setting": "[5]; 4% FBS, 24hrs, 50 mM", "value": "0.5 ± 0.7 ‰"}, {"measurement": "Buds", "setting": "[5]; 4% FBS, 24hrs, 50 mM", "value": "9.5 ± 2.1* ‰"}, {"measurement": "CBPI", "setting": "[5]; 4% FBS, 24hrs, 50 mM", "value": "1.8 ± 0.1"}, {"measurement": "MN (total number of micronuclei)", "setting": "[5]; 4% FBS, 24hrs, 50 mM", "value": "22.5 ± 3.5 ‰"}, {"measurement": "BN-MN (number of micronucleated cells)", "setting": "[5]; 4% FBS, 24hrs, 100 mM", "value": "30.0 ± 2.8* ‰"}, {"measurement": "Bridges", "setting": "[5]; 4% FBS, 24hrs, 100 mM", "value": "3.5 ± 0.7 ‰"}, {"measurement": "Buds", "setting": "[5]; 4% FBS, 24hrs, 100 mM", "value": "13.0 ± 4.2* ‰"}, {"measurement": "CBPI", "setting": "[5]; 4% FBS, 24hrs, 100 mM", "value": "1.7 ± 0.0"}, {"measurement": "MN (total number of micronuclei)", "setting": "[5]; 4% FBS, 24hrs, 100 mM", "value": "32.0 ± 2.8* ‰"}, {"measurement": "BN-MN (number of micronucleated cells)", "setting": "[5]; 4% FBS, 48hrs, 25 mM", "value": "20.5 ± 0.7 ‰"}, {"measurement": "Bridges", "setting": "[5]; 4% FBS, 48hrs, 25 mM", "value": "0.5 ± 0.7 ‰"}, {"measurement": "Buds", "setting": "[5]; 4% FBS, 48hrs, 25 mM", "value": "23.0 ± 2.8 ‰"}, {"measurement": "CBPI", "setting": "[5]; 4% FBS, 48hrs, 25 mM", "value": "1.8 ± 0.0"}, {"measurement": "MN (total number of micronuclei)", "setting": "[5]; 4% FBS, 48hrs, 25 mM", "value": "21.5 ± 2.1 ‰"}, {"measurement": "BN-MN (number of micronucleated cells)", "setting": "[5]; 4% FBS, 48hrs, 50 mM", "value": "22.0 ± 4.2 ‰"}, {"measurement": "Bridges", "setting": "[5]; 4% FBS, 48hrs, 50 mM", "value": "1.0 ± 1.4 ‰"}, {"measurement": "Buds", "setting": "[5]; 4% FBS, 48hrs, 50 mM", "value": "27.0 ± 4.2 ‰"}, {"measurement": "CBPI", "setting": "[5]; 4% FBS, 48hrs, 50 mM", "value": "1.8 ± 0.0"}, {"measurement": "MN (total number of micronuclei)", "setting": "[5]; 4% FBS, 48hrs, 50 mM", "value": "23.5 ± 5.0 ‰"}, {"measurement": "BN-MN (number of micronucleated cells)", "setting": "[5]; 4% FBS, 48hrs, 100 mM", "value": "40.5 ± 2.1* ‰"}, {"measurement": "Bridges", "setting": "[5]; 4% FBS, 48hrs, 100 mM", "value": "3.0 ± 1.4 ‰"}, {"measurement": "Buds", "setting": "[5]; 4% FBS, 48hrs, 100 mM", "value": "35.5 ± 3.5* ‰"}, {"measurement": "CBPI", "setting": "[5]; 4% FBS, 48hrs, 100 mM", "value": "1.7 ± 0.1"}, {"measurement": "MN (total number of micronuclei)", "setting": "[5]; 4% FBS, 48hrs, 100 mM", "value": "53.0 ± 4.2* ‰"}, {"measurement": "BN-MN (number of micronucleated cells)", "setting": "[5]; [8]", "value": "33.0 ± 2.8*"}, {"measurement": "Bridges", "setting": "[5]; [8]", "value": "3.5 ± 0.7"}, {"measurement": "Buds", "setting": "[5]; [8]", "value": "28.0 ± 2.8"}, {"measurement": "CBPI", "setting": "[5]; [8]", "value": "1.9 ± 0.0"}, {"measurement": "MN (total number of micronuclei)", "setting": "[5]; [8]", "value": "34.5 ± 5.0*"}, {"measurement": "Lowest effective concentration (LOEC) in micronucleus experiments", "setting": "[5]; Huh6", "value": 100000, "unit": "µM"}, {"measurement": "IARC classification", "setting": "[6]", "value": "Methylation of the DNA; activation: CYP2E1; IARC: Group 2A"}]}
